Data set [1] addresses T1, Gamma-secretase (Homo sapiens) (UniProt Q96BI3+Q9NZ42+Q8WW43+P49768+Q92542+P49810). Put plainly: Inhibition of gamma-secretase-mediated betaAPP K670N/M671L mutant cleavage in HEK293 cells assessed as inhibition of amyloid beta40/42 production at 60 uM after 8 hrs by chemiluminescence assay relative to control. The class given is cell-based.
Data set [2] concerns HEK293. Nature of the data set: Cytotoxicity against HEK293 cells overexpressing betaAPP K670N/M671L mutant at 60 uM by LDH release assay. In kind it is cell-based. Particulars: human, hek293, 60 µM. (LDH in the medium is a marker of cell lysis.)
Data set [3] has as its target T1, Gamma-secretase (Homo sapiens). Nature of the data set: Inhibition of presenilin-dependent gamma secretase complex in HEK293 solubilized membranes using Flag-C100 as substrate assessed as inhibition of amyloid beta40/42 production at 60 uM after 16 hrs by Western blotting analysis. In kind it is cell membranes.
Data set [4] has the same target. Nature of the data set: Modulation of gamma-secretase-mediated betaAPP K670N/M671L mutant cleavage in HEK293 cells assessed as inhibition of amyloid beta40/42 production at 10 to 30 uM after 8 hrs by chemiluminescence assay. In kind it is cell-based.
For data set [5], the system named is HEK293. Nature of the data set: Cytotoxicity against HEK293 cells overexpressing betaAPP K670N/M671L mutant at 10 to 30 uM by LDH release assay. The class given is cell-based. Particulars: human, hek293, 30 µM.
Data set [6] addresses T1, Gamma-secretase (Homo sapiens). Nature of the data set: Inhibition of gamma-secretase-mediated betaAPP K670N/M671L mutant cleavage in HEK293 cells assessed as inhibition of amyloid beta40/42 production at 10 to 30 uM after 8 hrs by chemiluminescence assay relative to control. In kind it is cell-based.
Data set [7] addresses Gamma-secretase. Put plainly: Inhibition of gamma-secretase-mediated betaAPP K670N/M671L mutant cleavage in HEK293 cells assessed as inhibition of amyloid beta40/42 production after 8 hrs by chemiluminescence assay. In kind it is cell-based, Homo sapiens.
Data set [8] in a line: Half life of the compound in buffer. The class given is physicochemical.
In data set [9] the target is T2, Proteasome Macropain subunit MB1 (Homo sapiens, UniProt P28074).
T2 sequence (P28074 whole entry): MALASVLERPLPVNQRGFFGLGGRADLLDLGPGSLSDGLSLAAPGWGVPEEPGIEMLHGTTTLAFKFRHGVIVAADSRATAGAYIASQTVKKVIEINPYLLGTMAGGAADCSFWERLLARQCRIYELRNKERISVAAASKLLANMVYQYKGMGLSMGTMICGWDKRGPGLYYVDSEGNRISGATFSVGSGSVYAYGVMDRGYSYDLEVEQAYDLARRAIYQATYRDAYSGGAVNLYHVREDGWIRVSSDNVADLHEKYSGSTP
Nature of the data set: Inhibition of chymotrypsin-like activity of Proteasome subunit beta 5 (unknown origin) assessed as inhibition of beta-amyloid production by cell-based assay.

The target of data set [10] is T1, Gamma-secretase (Homo sapiens). Nature of the data set: Modulation of gamma-secretase-mediated betaAPP K670N/M671L mutant cleavage in HEK293 cells assessed as inhibition of amyloid beta40/42 production at 60 uM after 8 hrs by chemiluminescence assay. In kind it is cell-based.
A short description of data set [11]: Half life of the compound in hepes buffer. In kind it is physicochemical.
In data set [12] the test system is HEK293. Nature of the data set: Cytotoxicity against HEK293 cells overexpressing betaAPP K670N/M671L mutant at 10 uM by LDH release assay. In kind it is cell-based. Particulars: human, hek293, 10 µM.

The results in this text go back to ChEMBL document CHEMBL2331080, “Further characterization of a putative serine protease contributing to the γ-secretase cleavage of β-amyloid precursor protein” (Bioorg Med Chem, 2013).

SMILES strings stand for the structures. Calls of active or inactive are those of the source. The calls are words filed in the database; no cut-off is given here.

What is called inhibition is the relative decrease from the control value, in per cent. Usually IC50 stands for the concentration that inhibits the measured activity by half. Usually half-life stands for the time in which the quantity being followed falls by half.

As to `O=c1oc(OCCBr)cc2ccc([N+](=O)[O-])cc12`, the inhibition in data set [1] is over 50%.
With `COc1oc(=O)c2cc(NCC(C)(C)C)ccc2c1Cl`, the Activity entry in data set [2] is “Toxic”.
`CC(C)C[C@@H](NC(=O)[C@H](Cc1ccccc1)NC(=O)c1cnccn1)B1O[C@H]2C[C@H]3C[C@H](C3(C)C)[C@@]2(C)O1`: the inhibition entry in data set [3] and in data set [1] was “inactive” each time.
For the molecule `COc1oc(=O)c2cc(NC(=O)CCCC(=O)O)ccc2c1Cl`, the inhibition result in data set [1] was “inactive”.
On to `COc1cc2ccc(N)cc2c(=O)o1`, for which, in [1], the inhibition entry was “inactive”.
Still for that read-out and setting: with `CCOC(=O)Nc1ccc2c(Cl)c(OC)oc(=O)c2c1` the entry was “inactive”.
For `COc1oc(=O)c2cc(NCc3ccccc3[N+](=O)[O-])ccc2c1Cl`, the inhibition entry in [4] is “inactive”. The Activity entry in data set [5] is listed as “Non-toxic”. The inhibition in [6] is over 50%.
For the molecule `COc1oc(=O)c2cc(NCc3ccc([N+](=O)[O-])cc3)ccc2c1Cl`, in data set [7], the IC50 amounted to 10 µM. In addition, in data set [5], the Activity result is “Non-toxic”. The inhibition in data set [1] and in data set [6] was over 50% throughout.
For the molecule `COc1oc(=O)c2cc(NC(=O)OC(C)(C)C)ccc2c1Cl`, the inhibition entry in data set [1] is “inactive”.
In the case of `CC(C)C[C@@H](NC(=O)[C@H](Cc1ccccc1)NC(=O)c1cnccn1)B(O)O`, the inhibition result in [3] and in [1] was “inactive” in each case.
Turning to `CCCCCCCC(=O)Nc1ccc2c(Cl)c(OC)oc(=O)c2c1`, the inhibition result in [1] was “inactive”.
Still for that read-out and setting: with `COCCOc1cc2ccc([N+](=O)[O-])cc2c(=O)o1` the figure was over 50%.
`CCC(C)Oc1oc(=O)c2cc([N+](=O)[O-])ccc2c1Cl` (centres undefined) displayed a half-life in data set [8] of under 0.333 h. Besides, the inhibition entry in data set [1] was “inactive”.
In the case of `CC(C)C[C@H](NC(=O)[C@H](Cc1ccccc1)NC(=O)c1ccccc1)B(O)O`, in data set [9], the IC50 was determined as 0.009 µM. Further, in [3], the inhibition entry was “inactive”. Moreover, the inhibition in data set [1] is over 50%.
On to `CC(C)C[C@H](NC(=O)[C@H](Cc1ccccc1)NC(=O)c1ccccc1)B1O[C@H]2C[C@H]3C[C@H](C3(C)C)[C@@]2(C)O1`, for which the IC50 in data set [7] stood at 10 µM. Moreover, the inhibition result in data set [3] is “inactive”. Also, the inhibition in data set [1] is over 50%.
For `COc1ccc(CNc2ccc3c(Cl)c(OC)oc(=O)c3c2)cc1`, the Activity entry in [2] is reported as “Non-toxic”. The inhibition entry in data set [1] was “inactive”.
For `COc1oc(=O)c2cc(NC(=O)OCc3ccccc3)ccc2c1Cl`, the inhibition entry in [1] was “inactive”.
As for `COc1oc(=O)c2cc(Nc3ccccc3)ccc2c1Cl`, the Activity entry in data set [2] is listed as “Toxic”.
With `CCNc1ccc2c(Cl)c(OC)oc(=O)c2c1`, the IC50 in data set [7] was 10 µM.
As for `COCCOc1cc2ccc(N)cc2c(=O)o1`, the inhibition result in data set [1] is “inactive”.
In the case of `COc1cc2ccc([N+](=O)[O-])cc2c(=O)o1`, the inhibition entry in data set [10] is “Active”.
In the case of `COc1oc(=O)c2cc(NCc3ccc4ccccc4c3)ccc2c1Cl`, in [4], the inhibition result was “inactive”. Besides, in data set [5], the Activity result is given as “Non-toxic”. For the same molecule, in [6], the inhibition was over 50%.
For `COc1oc(=O)c2cc(Nc3cccc([N+](=O)[O-])c3)ccc2c1Cl`, the Activity result in [2] is reported as “Non-toxic”. Besides, in [1], the inhibition entry is “inactive”.
For the molecule `COc1oc(=O)c2cc(N)ccc2c1Cl`, the half-life in data set [11] is 3.5 h.
The molecule `CCOc1oc(=O)c2cc(N)ccc2c1Cl` gave a half-life in data set [11] of 3.5 h. Moreover, the inhibition in data set [1] is over 50%.
Take `CCCCOc1oc(=O)c2cc(N)ccc2c1Cl`: the values for the Activity entry in data set [2] and in [12] were “Toxic” and “Non-toxic”, respectively.
For `CC(C)C[C@@H](NC(=O)[C@H](Cc1ccccc1)NC(=O)c1ccccc1)B1O[C@H]2C[C@H]3C[C@H](C3(C)C)[C@@]2(C)O1`, the inhibition entry in data set [3] is “inactive”. Also, the inhibition in data set [1] was over 50%.
With `CCOc1oc(=O)c2cc([N+](=O)[O-])ccc2c1Cl`, the half-life in data set [8] is under 0.333 h. Besides, the inhibition result in [1] was “inactive”.
On to `COc1oc(=O)c2cc(NC(C)=O)ccc2c1Cl`, for which, in data set [1], the inhibition result is “inactive”.
Consider `C=CCOC(=O)Nc1ccc2c(Cl)c(OC)oc(=O)c2c1`, for which the inhibition result in [1] is “inactive”.
As to `Nc1ccc2cc(OCCBr)oc(=O)c2c1`, the inhibition entry in data set [1] is “inactive”.
As to `COc1oc(=O)c2cc(NC(=O)OCC(Cl)(Cl)Cl)ccc2c1Cl`, the inhibition result in [1] is “inactive”.
Turning to `COc1oc(=O)c2cc(NCCC(C)C)ccc2c1Cl`, in data set [2], the Activity entry is reported as “Non-toxic”. The inhibition in data set [1] was over 50%.
Regarding `COc1oc(=O)c2cc(NCc3ccc(OCc4ccccc4)cc3)ccc2c1Cl`, in data set [4], the inhibition result is “inactive”. Moreover, the Activity result in data set [5] is listed as “Non-toxic”. In addition, in [6], the inhibition was over 50%.
In the case of `COc1oc(=O)c2cc(NCc3ccccc3)ccc2c1Cl`, the Activity entry in [2] is on record as “Non-toxic”. Besides, the inhibition entry in data set [1] is “inactive”.
On to `COc1oc(=O)c2cc(NCC3CCCCC3)ccc2c1Cl`, for which the Activity entry in [5] is listed as “Toxic”. Besides, in [6], the inhibition was over 50%.
For `CCCCC(CC)CNc1ccc2c(Cl)c(OC)oc(=O)c2c1` (centres undefined), the Activity result in [5] is on record as “Toxic”. For the same molecule, the inhibition in data set [6] was over 50%.
For the molecule `COc1oc(=O)c2cc(NC(=O)OCC3c4ccccc4-c4ccccc43)ccc2c1Cl`, in data set [1], the inhibition entry is “inactive”.
Take `COc1oc(=O)c2cc(NCc3cccc4ccccc34)ccc2c1Cl`: in data set [2], the Activity entry is reported as “Non-toxic”. The inhibition in data set [1] was over 50%.
On to `CC(C)C[C@@H](NC(=O)[C@H](Cc1ccccc1)NC(=O)c1ccccc1)B(O)O`, for which the inhibition entry in [3] was “inactive”. In addition, the inhibition in [1] is over 50%.
Consider `COc1oc(=O)c2cc(NC(=O)OC34CC5CC(CC(C5)C3)C4)ccc2c1Cl`, for which the inhibition result in data set [1] is “inactive”.
Same read-out and setting: with `COc1oc(=O)c2cc(NC(=O)C(F)(F)C(F)(F)F)ccc2c1Cl` the entry was “inactive”.
For `COc1oc(=O)c2cc(NCCC(C)(C)C)ccc2c1Cl`, the Activity result in [5] was “Toxic”. Further, the inhibition in data set [6] was over 50%.
As to `COc1oc(=O)c2cc(NC/C=C\c3ccccc3)ccc2c1Cl`, the Activity entry in data set [2] is recorded as “Non-toxic”. The inhibition entry in data set [1] is “inactive”.
Turning to `CC(C)C[C@H](NC(=O)[C@H](Cc1ccccc1)NC(=O)c1cnccn1)B1O[C@H]2C[C@H]3C[C@H](C3(C)C)[C@@]2(C)O1`, the inhibition result in data set [3] and in data set [1] was “inactive” in each case.
Turning to `COc1oc(=O)c2cc(NCCCc3ccccc3)ccc2c1Cl`, the Activity result in data set [2] is on record as “Non-toxic”. The inhibition result in data set [1] is “inactive”.
In the case of `CCC(C)Oc1oc(=O)c2cc(N)ccc2c1Cl` (centres undefined), the Activity entry in data set [2] is listed as “Toxic”; in data set [12], “Non-toxic”.
On to `CCCCCCCCCNc1ccc2c(Cl)c(OC)oc(=O)c2c1`, for which, in data set [5], the Activity result is “Non-toxic”. For the same molecule, the inhibition entry in data set [10] was “Active”. In data set [6], the inhibition was over 50%.
Turning to `CC(C)C[C@H](NC(=O)[C@H](Cc1ccccc1)NC(=O)c1cnccn1)B(O)O`, the inhibition result in data set [3] and in [1] was “inactive” each time.
Take `COc1oc(=O)c2cc(NCC(C)C)ccc2c1Cl`: the IC50 in data set [7] was 10 µM. Besides, in data set [5], the Activity result is recorded as “Non-toxic”. In addition, the inhibition in data set [1] and in data set [6] was over 50% each time.
In data set [8], `CCCCOc1oc(=O)c2cc([N+](=O)[O-])ccc2c1Cl` showed a half-life of under 0.333 h. Moreover, the inhibition result in data set [1] was “inactive”.
For the molecule `CCCCCCNc1ccc2c(Cl)c(OC)oc(=O)c2c1`, the Activity result in [2] is given as “Non-toxic”. Besides, the inhibition in [1] was over 50%.
Turning to `COc1oc(=O)c2cc(NC(=O)C(C)(C)C)ccc2c1Cl`, the inhibition entry in data set [10] was “Active”.
